In the assay the target is Tyrosyl-tRNA synthetase (Staphylococcus aureus). As to the kind of experiment: Inhibitory activity of compound against tyrosyl tRNA synthetase from Staphylococcus aureus was determined.

Molecules are shown by their SMILES.

The IC50 is the concentration needed to halve the response being measured. The low end stands for greater potency in that assay, the high end for weaker potency in that assay.

Take `N[C@@H](Cc1ccc(O)cc1)C(=O)N[C@@H](C(=O)O)[C@H]1[C@H](O)[C@@H](O)[C@@H](O)CN1O` [(R)-[(S)-2-Amino-3-(4-hydroxy-phenyl)-propionylamino]-((2S,3S,4S,5S)-1,3,4,5-tetrahydroxy-piperidin-2-yl)-acetic acid]: the IC50 amounted to 21 nM.

The values are drawn from BindingDB's records for doi:10.1016/s0960-894x(00)00348-6 (Smithkline Beecham Pharmaceuticals, 2000).
